Source: PMC8851282, “Senolysis induced by 25-hydroxycholesterol targets CRYAB in multiple cell types” (iScience, 2022)

What was measured:
[1] = system: human cardiac microvascular endothelial cells (hCMECs); assay: Cell viability assay of NS and Doxo- or IR-induced senescent hCMECs treated with 25HC; format: cell-based; conditions: 10 μM after 15 days of treatment; Doxo or IR induced senescence
Method: Figure 7 25HC treatment timeline and its effects on NS and SEN hCMECs, hLSCs, hRPTECs, and hACs All cell types were treated with either DMSO, 250 nM Doxo or 10-Gy IR at the times shown. 25HC treatment was started 24 h after Doxo or IR treatment. Cell viability was measured every 3–5 days for 15 days. Optimal treatment times for maximum senolysis are shown for each cell type: day 15 for hCMECs, day 3 for hLSCs, day 9 for hRPTECs and day 12 for hACs. For qRT-PCR: mean ± SE, n =4, ∗p< 0.05, ∗∗p< 0.01, ∗∗∗p<0.001, ∗∗∗∗p<0.0001 by Dunnett’s multiple comparisons test vs DMSO or NS, For cell viability assays: mean ± SE, n =3, ∗∗p< 0.01, ∗∗∗p<0.001, ∗∗∗∗p<0.0001 vs 0 mM by student’s t test.
All experiments were performed in incubators at 37 °C, 3% O2 and 5% CO2. Senescence was induced by treatment with either Doxo (250 nM for 24 h) ([Demaria et al., 2017]) or X-irradiation (10 Gy) ([Limbad et al., 2020]). […]
Cell viability was assessed using a cell counting kit-8 from Dojindo Molecular Technologies, Inc (Cat CK04-20). […] The supernatant was transferred to a new 96-well plate and absorbance read at 450 nm as recommended in the product datasheet. […]
Supplementary Fig. 10 (related to Fig. 6-7). […] Cel l vi abi l i ty was measured every 3–5 days until 15 days. […] Cel l vi abi l i ty was measured every 3–5 days until 15 days. […]

FAPs = assay: Cell viability assay (cell counting kit-8) of senescent and non-senescent FAPs treated with inhibitors; format: cell-based, mouse; conditions: for IC50: Mus musculus, FAPs
Method: Figure 3 25HC is a senolytic in multiple muscle cell types (A) Targets, compounds, and mechanisms. (B) Timeline of cell viability assay with inhibitors. Cells were pre-cultured for 24 h, treated with Doxo for 24 h, and then treated with inhibitors. Cell viability was analyzed from day 0–7. (C–E) Effects of inhibitors on viability of FAPs, SCs, and HSMMs. Cells were treated with inhibitors at the indicated concentrations. Cell viability was analyzed on day 3 (HSMMs) or 5 (FAPs and SCs). Blue and red dots indicate non-senescent (NS) and senescent (SEN), respectively. The average value at 0 μM for each group was set at 100% cell viability. p values versus NS were obtained using unpaired two-tailed Student’s t test. ∗p < 0.05, ∗∗p < 0.01, and ∗∗∗p < 0.001.
Figure 4 EC50 fitted curves (triplicates) of inhibitor effects at 3 and 7 days in FAPS and SCs EC50 was defined as the concentration of inhibitors that provokes a response halfway between baseline and maximum senolytic activity. EC50 values were determined by four- parameter logistic modeling using GraphPad Prism 8.0.
Hind limb muscles were digested in DMEM containing 0.5% (w/v) collagenase type II (Worthington) for 90 min at 37 °C with trituration and passed through a 40-μm nylon mesh. Erythrocytes were eliminated by treating with BD Pharm Lyse (BD Biosciences). Cells were resuspended in a washing buffer of PBS with 2% FBS and stained with antibodies for 30 min at 4 °C as described ([Kamizaki et al., 2017]). FAPs and SCs were isolated from the suspension by FACS (Aria II, BD Biosciences) using anti-CD31, CD45, Sca-1, PDGFR and VCAM1 antibodies. FAPs were identified as Sca1/PDGFR-positive and CD31-, CD45- and VCAM1-negative cells ([Uezumi et al., 2010]). SCs were identified as VCAM1-positive and CD31-, CD45-, Sca-1 and PDGFR-negative cells ([Liu et al., 2015]).
All experiments were performed in incubators at 37 °C, 3% O2 and 5% CO2. Senescence was induced by treatment with either Doxo (250 nM for 24 h) ([Demaria et al., 2017]) or X-irradiation (10 Gy) ([Limbad et al., 2020]). For cell culture studies using 25HC, it was used at the indicated concentrations in the media.
FAPs and SCs were cultured on Matrigel-coated dishes (BD Biosciences) in growth medium (GM) consisting of DMEM plus 10% FBS, 1% penicillin-streptomycin and 10% MyoCult (STEMCELL Technologies) for 7 days. Human myogenic cell HSMMs (Lonza) were maintained according to the manufacturer’s instructions with SkGM-2 medium (Lonza).
Cell viability was assessed using a cell counting kit-8 from Dojindo Molecular Technologies, Inc (Cat CK04-20). Cells were incubated with culture media + 10% kit cell viability reagent, 150 μL/well in 96-well plates for 2 h. The supernatant was transferred to a new 96-well plate and absorbance read at 450 nm as recommended in the product datasheet.

## C[C@H](CCCC(C)(C)O)[C@H]1CC[C@H]2[C@@H]3CC=C4C[C@@H](O)CC[C@]4(C)[C@H]3CC[C@]12C [25HC, 25-hydroxycholesterol]
[1]
  senolysis in hCMECs: induced significant senolysis
FAPs; Doxo-induced senescence, viability on day 5, 25HC at concentrations between 0.1 and 1 μM
  viability of senescent versus non-senescent FAPs: specifically decreased the viability of senescent FAPs
FAPs; 72 h, 3 days in culture
  IC50: 1700 nM
FAPs; 168 h, 7 days in culture
  IC50: 1200 nM
